Assay results reported in the supplement of paper PMC6045584.
± gives the standard deviation of the averaged measurements.

What was measured:
SALINOMYCIN = compound: CC[C@@H](C(=O)[C@@H](C)[C@@H](O)[C@H](C)[C@@H]1O[C@@H]([C@@H](CC)C(=O)O)CC[C@@H]1C)[C@H]1O[C@]2(C=C[C@@H](O)[C@]3(CC[C@@](C)([C@H]4CC[C@](O)(CC)[C@H](C)O4)O3)O2)[C@H](C)C[C@@H]1C [SALINOMYCIN]; assay: area under dose-response curve of surviving fraction (unscaled, Aref=0) (surviving fraction x log10(nM)); higher = more resistant; conditions: exposure time: 5 days; dose range 0.5-1000 nM
Method in brief: (§1)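 Tumour cell lines in 384-well plates were exposed to eight inhibitor concentrations, from 0.5 to 1000 nM, for five days, and viability was read by CellTiter-Glo luminescence in three screens per line. Signals were normalised to DMSO-only wells, and 3-parameter logistic regression in the drc R package fitted dose-response survival curves to the surviving fractions. Area under the curve is given as the unscaled activity area. That area is taken over log10 dose with Aref = 0.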

DOXORUBICIN = compound: COc1cccc2c1C(=O)c1c(O)c3c(c(O)c1C2=O)C[C@@](O)(C(=O)CO)C[C@@H]3O[C@H]1C[C@H](N)[C@H](O)[C@H](C)O1 [DOXORUBICIN]; assay: as above; conditions: exposure time: 5 days; dose range 0.5-1000 nM
Method in brief: as §1

ABT-737 = compound: CN(C)CC[C@H](CSc1ccccc1)Nc1ccc(S(=O)(=O)NC(=O)c2ccc(N3CCN(Cc4ccccc4-c4ccc(Cl)cc4)CC3)cc2)cc1[N+](=O)[O-] [ABT-737]; assay: as above; conditions: exposure time: 5 days; dose range 0.5-1000 nM
Method in brief: as §1

[1] = compound: CCN(CC)CCCCNc1ncc2cc(-c3cc(OC)cc(OC)c3)c(NC(=O)NC(C)(C)C)nc2n1; assay: as above; conditions: exposure time: 5 days; dose range 0.5-1000 nM
Method in brief: as §1

NUTLIN3 = compound: COc1ccc(C2=N[C@@H](c3ccc(Cl)cc3)[C@@H](c3ccc(Cl)cc3)N2C(=O)N2CCNC(=O)C2)c(OC(C)C)c1 [NUTLIN3]; assay: as above; conditions: exposure time: 5 days; dose range 0.5-1000 nM
Method in brief: as §1

LAPATINIB = compound: CS(=O)(=O)CCNCc1ccc(-c2ccc3ncnc(Nc4ccc(OCc5cccc(F)c5)c(Cl)c4)c3c2)o1 [LAPATINIB]; assay: as above; conditions: exposure time: 5 days; dose range 0.5-1000 nM
Method in brief: as §1

2-METHOXYESTRADIOL = compound: COc1cc2c(cc1O)CC[C@@H]1[C@@H]2CC[C@]2(C)[C@@H](O)CC[C@@H]12 [2-METHOXYESTRADIOL]; assay: as above; conditions: exposure time: 5 days; dose range 0.5-1000 nM
Method in brief: as §1

VISMODEGIB = compound: CS(=O)(=O)c1ccc(C(=O)Nc2ccc(Cl)c(-c3ccccn3)c2)c(Cl)c1 [VISMODEGIB]; assay: as above; conditions: exposure time: 5 days; dose range 0.5-1000 nM
Method in brief: as §1

17-AAG = compound: C=CCNC1=C2C[C@@H](C)C[C@H](OC)[C@H](O)[C@@H](C)/C=C(\C)[C@H](OC(N)=O)[C@@H](OC)/C=C\C=C(/C)C(=O)NC(=CC1=O)C2=O [17-AAG]; assay: as above; conditions: exposure time: 5 days; dose range 0.5-1000 nM
Method in brief: as §1

DECITABINE = compound: Nc1ncn([C@H]2C[C@H](O)[C@@H](CO)O2)c(=O)n1 [DECITABINE]; assay: as above; conditions: exposure time: 5 days; dose range 0.5-1000 nM
Method in brief: as §1

FLAVOPIRIDOL [2] = compound: T1, CN1CC[C@H](c2c(O)cc(O)c3c(=O)cc(-c4ccccc4Cl)oc23)[C@H](O)C1 [FLAVOPIRIDOL]; assay: as above; conditions: exposure time: 5 days; dose range 0.5-1000 nM
Method in brief: as §1

FLAVOPIRIDOL [3] = compound: T1, FLAVOPIRIDOL; assay: surviving fraction relative to DMSO-only wells; higher = less growth inhibition; conditions: exposure time: 5 days
Method in brief: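 Log-phase tumour cells were seeded at 250–500 per well in 384-well plates and, from 24 hours after seeding, exposed continuously for five days to inhibitors at 0.5, 1, 5, 10, 50, 100, 500 and 1000 nM. Surviving fraction is CellTiter-Glo luminescence normalised to the median of DMSO-only wells. Luminescence was measured after 10 minutes at room temperature, and only lines screened three times with replicate Pearson r >0.7 and median Z' >0.3 were kept.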

FLUOROURACIL = compound: O=c1[nH]cc(F)c(=O)[nH]1 [FLUOROURACIL]; assay: area under dose-response curve of surviving fraction (unscaled, Aref=0) (surviving fraction x log10(nM)); higher = more resistant; conditions: exposure time: 5 days; dose range 0.5-1000 nM
Method in brief: as §1

Test System	area under dose-response curve (SALINOMYCIN)	area under dose-response curve (DOXORUBICIN)	area under dose-response curve (ABT-737)	area under dose-response curve [1]	area under dose-response curve (NUTLIN3)	area under dose-response curve (LAPATINIB)	area under dose-response curve (2-METHOXYESTRADIOL)	area under dose-response curve (VISMODEGIB)	area under dose-response curve (17-AAG)	area under dose-response curve (DECITABINE)	area under dose-response curve (FLAVOPIRIDOL [2])	surviving fraction (FLAVOPIRIDOL [3]; 0.5 nM)	surviving fraction (FLAVOPIRIDOL [3]; 1 nM)	surviving fraction (FLAVOPIRIDOL [3]; 5 nM)	surviving fraction (FLAVOPIRIDOL [3]; 10 nM)	surviving fraction (FLAVOPIRIDOL [3]; 50 nM)	surviving fraction (FLAVOPIRIDOL [3]; 100 nM)	surviving fraction (FLAVOPIRIDOL [3]; 500 nM)	surviving fraction (FLAVOPIRIDOL [3]; 1000 nM)	area under dose-response curve (FLUOROURACIL)
OSHN BONE	2.81	1.98	3.58	3.35	3.52	3.55	3.21	3.27	2.3	3.71	2.31	1.08 ± 0.018	1.08 ± 0.022	1.114 ± 0.0095	1.08 ± 0.018	1.23 ± 0.035	0.382 ± 0.041	0.0357 ± 0.0055	0.0323 ± 0.0075	
S68 BREAST	2.67	1.32	3.67	3.23	3.12		3.07	3.02	0.636	2.84	2.32	1.18 ± 0.31	0.847 ± 0.12	0.765 ± 0.091	1.2 ± 0.31	0.888 ± 0.29	0.483 ± 0.068	0.0377 ± 0.0021	0.0367 ± 0.0055	2.83
SCC47 HEADNECK	3.07	2.27	3.89	3.33	3.66		3.24	3.19	2.29		2.12	1.18 ± 0.052	1.2 ± 0.061	1.23 ± 0.093	1.15 ± 0.078	0.665 ± 0.013	0.153 ± 0.043	0.039 ± 0.0017	0.0353 ± 0.0029	3.44
SG27 HEADNECK	2.95	2.61		3.03			3.61	3.18	2.94	3.79	2.29	1.16 ± 0.11	1.04 ± 0.04	0.987 ± 0.12	1.02 ± 0.3	0.844 ± 0.087	0.368 ± 0.063	0.0753 ± 0.047	0.071 ± 0.032	3.48
SG43 HEADNECK	3.03	1.71	2.77	3.03	2.8	2.24	2.84		1.77		2.35	1.04 ± 0.084	1.18 ± 0.081	0.885 ± 0.11	1.07 ± 0.044	0.812 ± 0.049	0.562 ± 0.12	0.028 ± 0.0062	0.033 ± 0.0076	3.27
SJSA1 BONE	2.91	1.9	5.63	3.48	3.18	5.27	5.58	3.35	1.72	4.52	2.96	0.135 ± 0.0078	0.272 ± 0.042	1.71 ± 0.2	0.209 ± 0.011	0.0583 ± 0.0059	1.74 ± 0.06	1.64 ± 0.076	0.776 ± 0.074	
SNU475 LIVER	2.58	2.22	3.39	3.01	3.32		3.26	3.06	1.66	3.4	2.33	1.05 ± 0.041	1 ± 0.032	1.09 ± 0.015	1.07 ± 0.072	1.02 ± 0.026	0.438 ± 0.048	0.0423 ± 0.0046	0.0407 ± 0.0029	3.03
SUM44 BREAST	3.22	2.59		3.27	3.26	3.72		3.11	2.02	3.87	2.36	1.14 ± 0.35	1.17 ± 0.16	1.22 ± 0.23	1.22 ± 0.27	1.08 ± 0.24	0.283 ± 0.012	0.119 ± 0.039	0.104 ± 0.036	3.15
SUM159 BREAST	2.31	1.84		3.75	3.27	3.55	3.24		1.72	3.48	2.38	1.08 ± 0.024	1.08 ± 0.021	1.09 ± 0.014	1.049 ± 0.0055	1.08 ± 0.026	0.44 ± 0.082	0.0913 ± 0.0097	0.0957 ± 0.0072	3.29
U2OS BONE	3.16	1.98	3.49	3	3.28		3.08	3.48	2.13	3.01	2.2	1.04 ± 0.049	1.03 ± 0.042	1.1 ± 0.028	1.09 ± 0.053	0.956 ± 0.017	0.112 ± 0.015	0.033 ± 0.0017	0.03 ± 0.001	3.18
VCAP PROSTATE	2.89	2.3	3.49	3.48	3.78	3.07	3.12	3.36	2.25	3.68	2.26	1.05 ± 0.085	1.02 ± 0.079	1.42 ± 0.065	1.52 ± 0.076	0.87 ± 0.058	0.324 ± 0.031	0.042 ± 0.01	0.051 ± 0.031	
VP229 BREAST	2.4	2.61	3.82	3.78	3.5	3.02	3.43	3.65	1.93		2.08	1.13 ± 0.17	1.11 ± 0.062	1.16 ± 0.073	0.957 ± 0.12	0.564 ± 0.095	0.211 ± 0.13	0.0273 ± 0.0031	0.0273 ± 0.004	2.98
YAMATO SYNOVIAL	2.25	2.03	4.34	3.96	4.58	4.08	3.05		2.65		2.38	1.12 ± 0.068	1.08 ± 0.053	1.25 ± 0.061	1.11 ± 0.11	0.682 ± 0.082	0.306 ± 0.023	0.26 ± 0.0092	0.29 ± 0.013	3
